Columns and labels:
Assay type in all cases: in vivo
[1] = test system: tick larvae (Rhipicephalus sanguineus); assay: Method E: Rhipicephalus sanguineus Screen; details: concentration of 500 ppm or less, treated filter paper, after 24 hours at 25° C.
Method: Method E: Rhipicephalus sanguineus Screen A solution of the formulated preparation to be examined was dropped onto filter paper. After solvent evaporation the filter paper was infested with 20-30 tick larvae (Rhipicephalus sanguineus). After 24 hours storage at 25° C. the efficacy of the preparation was determined.

[2] = test system: rice leafhopper species Nephoteftix cincticeps; assay: Method D: Nephotettix cinciceps Screen; details: concentration of 500 ppm or less; rice plants dipped, L3 larvae, after 6 days at 25° C.
Method: Method D: Nephotettix cinciceps Screen
The leaves of 12 rice plants having a stem length of 8 cm were dipped for 5 seconds into an aqueous solution of the formulated preparation to be examined. After the solution had run off, the rice plants treated in this manner were placed in a Petri dish and populated with about 20 larvae (L3 stage) of the rice leafhopper species Nephoteftix cincticeps. The Petri dish was closed and then stored in a climate chamber (16 hours of light/day, 25° C., 40-60% relative atmospheric humidity). After 6 days storage, the mortality among the leafhopper larvae was determined.

[3] = test system: black bean aphids (Aphis fabae); assay: Method B: Aphis fabae Screen; details: concentration of 500 ppm or less; added to water of field bean (Vicia faba) plants, effect on aphids after 3 and 6 days at 25° C.
Method: Method B: Aphis fabae Screen Germinated field bean seeds (Vicia faba) with roots were transferred into bottles filled with tap water and an aqueous solution of the formulated preparation to be examined (4 ml) was added. The plants were then infested with approximately 100 black bean aphids (Aphis fabae) and stored in a controlled-environment cabinet at 25° C. After 3 and 6 days storage, the effect of the preparation on the aphids was determined.

CC1=C(C)CC2(SC1)C(=O)N(c1c(Cl)cc(C(F)(F)F)cc1Cl)N=C2C#N (stereo not drawn) [Compound 9, [1-(2,6-dichloro-4-trifluoromethylphenyl)-3-cyanopyrazolin-5-one]-4-spiro-2′-(4′,5′-dimethyl-2′H-3′,6′-dihydrothiane)]
control (efficacy) [1]: at least 50%

CC1=NN(c2c(Cl)cc(C(F)(F)F)cc2Cl)C(=O)C12SC1C=CC2C1 (stereo not drawn) [Compound 8, [1-(2,6-dichloro-4-trifluoromethylphenyl)-3-methylpyrazolin-5-one]-4-spiro-3′-(2′-thiabicyclo[2.2.1]hept-5′-ene)]
control (mortality among the leafhopper larvae) [2]: at least 50%

CC1=NN(c2c(Cl)cc(C(F)(F)F)cc2Cl)C(=O)C12CC=C(c1ccccc1)C[S+]2[O-] (stereo not drawn) [Compound 12, [1-(2,6-dichloro-4-trifluoromethylphenyl)-3-methylpyrazolin-5-one]-4-spiro-2′-(5′-phenyl-1′-oxo-2′H-3′,6′-dihydrothiane)]
control [3]: at least 50%
